System: NO production by RAW264.7 cell
Assay: NO production-inhibiting effect in RAW264.7 cells (nitrite ion by DAN fluorescence)
Format: cell-based, mouse
Conditions: Mus musculus, RAW264.7, RAW264.7; LPS 5 ng/ml + interferon gamma 1 U/ml; nitrite ion in culture supernatant after overnight incubation
Method: Mouse macrophage cell line RAW264.7 was used as an iNOS-inducible cell and a test compound was examined for its % inhibition of NO production. The test compound was dissolved at 10 mM in N,N-dimethylformamide and diluted with an RPMI-1640 medium at the concentration of 0.1 mM. The concentration was further adjusted using the medium so that a final concentration ranging from 10 μM to 10 nM could be obtained by a 10-fold serial dilution and the test compound was added to a culture medium. On the day before the experiment, the cell was adjusted at 5×10^5/ml in an RPMI-1640 medium supplemented with 10% inactivated fetal calf serum and inoculated to a 96-well microplate at 1×10^5 cells/0.2 ml per well. After incubating at 37° C. under an atmosphere of 5% CO2/95% air overnight, the test compound adjusted as described above was added and then LPS and interferon gamma were added at the final concentrations of 5 ng/ml and 1 U/ml, respectively. After further incubating overnight, culture supernatants were examined for the concentration of nitrite ion (stable metabolite of NO) which was used as an index for the NO production. The nitrite ion concentration was determined by adding 25 μl of 20 μg/ml of 2,3-diaminonaphthalene (DAN) to 50 μl of the culture supernatant, followed by incubating at room temperature for 10 minutes, followed by adding 25 μl of 0.5 N NaOH, followed by determining a fluorescence at 450 nm (excitation wavelength: 365 nm). An IC50 represents the concentration of the test compound which inhibits 50% of the NO production.

Row | IC50 [µM] | Compound
1 | 2.5 | CCOC(=O)C1=CCCCC1S(=O)(=O)Nc1ccc(-n2nccn2)cc1 (centres unmarked) [Compound 40, ethyl 6-[N-[4-(2H-1,2,3-triazol-2-yl)phenyl)sulfamoyl]-1-cyclohexene-1-carboxylate]
2 | 0.24 | CCOC(=O)C1=CCCCC1S(=O)(=O)Nc1cc(Cl)ccc1Cl (centres unmarked) [Compound 41, ethyl 6-[N-(2,5-dichlorophenyl)sulfamoyl]-1-cyclohexene-1-carboxylate]
3 | 1.1 | CCOC(=O)C1=CCCCC1S(=O)(=O)Nc1ccccc1OC(F)(F)F (centres unmarked) [Compound 42, ethyl 6-[N-(2-trifluoromethoxyphenyl)sulfamoyl]-1-cyclohexene-1-carboxylate]
4 | 0.073 | CCOC(=O)C1=CCCCC1S(=O)(=O)Nc1cc(F)c(F)cc1F (centres unmarked) [Compound 43, ethyl 6-[N-(2,4,5-trifluorophenyl)sulfamoyl]-1-cyclohexene-1-carboxylate]
5 | 3.7 | CCOC(=O)C1=CCCCC1S(=O)(=O)Nc1ccc(-n2ncnn2)cc1 (centres unmarked) [Compound 44, ethyl 6-[N-[4-(2H-tetrazol-2-yl)phenyl)sulfamoyl]-1-cyclohexene-1-carboxylate]
6 | 0.027 | CCOC(=O)C1=CCCCC1S(=O)(=O)Nc1ccc(C)cc1Cl (centres unmarked) [Compound 45, ethyl 6-[N-(2-chloro-4-methylphenyl)sulfamoyl]-1-cyclohexene-1-carboxylate]
7 | 0.054 | CCOC(=O)C1=CCCCC1S(=O)(=O)Nc1ccc(F)cc1C (centres unmarked) [Compound 46, ethyl 6-[N-(4-fluoro-2-methylphenyl)sulfamoyl]-1-cyclohexene-1-carboxylate]
8 | 0.048 | CCOC(=O)C1=CCCCC1S(=O)(=O)Nc1c(Cl)cccc1Cl (centres unmarked) [Compound 47, ethyl 6-[N-(2,6-dichlorophenyl)sulfamoyl]-1-cyclohexene-1-carboxylate]
9 | 3.8 | CCOC(=O)C1=CCCCC1S(=O)(=O)Nc1ccc(-n2cnnn2)cc1 (centres unmarked) [Compound 48, ethyl 6-[N-[4-(1H-tetrazol-1-yl)phenyl)sulfamoyl]-1-cyclohexene-1-carboxylate]
10 | 5.6 | CCOC(=O)C1=CCCCC1S(=O)(=O)Nc1ccc(-n2ccnn2)cc1 (centres unmarked) [Compound 49, ethyl 6-[N-[4-(1H-1,2,3-triazol-1-yl)phenyl)sulfamoyl]-1-cyclohexene-1-carboxylate]
11 | 2 | CCOC(=O)C1=CCCCC1S(=O)(=O)Nc1ccccc1C(F)(F)F (centres unmarked) [Compound 50, ethyl 6-[N-(2-trifluoromethylphenyl)sulfamoyl]-1-cyclohexene-1-carboxylate]
12 | 4 | CCOC(=O)C1=CCCCC1S(=O)(=O)Nc1ccc(C(=O)OC)cc1 (centres unmarked) [Compound 51, ethyl 6-(N-(4-methoxycarbonylphenyl)sulfamoyl]-1-cyclohexene-1-carboxylate]
13 | 4.3 | O=C(OCc1ccccc1)C1=CCCCC1S(=O)(=O)Nc1ccc(F)cc1F (centres unmarked) [Compound 52, benzyl 6-[N-(2,4-difluorophenyl)sulfamoyl]-1-cyclohexene-1-carboxylate]
14 | 2.3 | CCOC(=O)C1=CCCCC1S(=O)(=O)Nc1ccc(C(=O)OC)cc1Cl (centres unmarked) [Compound 54, ethyl 6-[N-(2-chloro-4-methoxycarbonylphenyl)sulfamoyl]-1-cyclohexene-1-carboxylate]
15 | 3.3 | CCOC(=O)C1=CCCCC1S(=O)(=O)Nc1ccc(C#N)cc1Cl (centres unmarked) [Compound 55, ethyl 6-[N-(2-chloro-4-cyanophenyl)sulfamoyl]-1-cyclohexene-1-carboxylate]
16 | 1 | O=C(OCCO)C1=CCCCC1S(=O)(=O)Nc1ccc(F)cc1F (centres unmarked) [Compound 56, 2-hydroxyethyl 6-[N-(2,4-difluorophenyl)sulfamoyl]-1-cyclohexene-1-carboxylate]
17 | 0.39 | CCOC(=O)C1=CCCC1S(=O)(=O)Nc1ccc(F)cc1F (centres unmarked) [Compound 58, ethyl 5-[N-(2,4-difluorophenyl)sulfamoyl]-1-cyclopentene-1-carboxylate]
18 | 0.54 | CC(C)(C)OC(=O)COC(=O)C1=CCCCC1S(=O)(=O)Nc1ccc(F)cc1F (centres unmarked) [Compound 59, t-butyl [6-[N-(2,4-difluorophenyl)sulfamoyl]-1-cyclohexen-1-yl]carbonyloxyacetate]
19 | 7.9 | O=C(O)COC(=O)C1=CCCCC1S(=O)(=O)Nc1ccc(F)cc1F (centres unmarked) [Compound 60, [6-[N-(2,4-difluorophenyl)sulfamoyl]-1-cyclohexen-1-yl]carbonyloxyacetic acid]
20 | 2.8 | CCOC(=O)C1=CCCCCC1S(=O)(=O)Nc1ccc(F)cc1F (centres unmarked) [Compound 61, ethyl 7-[N-(2,4-difluorophenyl)sulfamoyl]-1-cycloheptene-1-carboxylate]
21 | 8.4 | CCOC(=O)CNC(=O)c1ccc(NS(=O)(=O)C2CCCC=C2C(=O)OCC)c(Cl)c1 (centres unmarked) [Compound 63, ethyl 6-[N-[2-chloro-4-(N-ethoxycarbonylmethylcarbamoyl)phenyl]sulfamoyl]-1-cyclohexene-1-carboxylate]
22 | 0.25 | CCOC(=O)C1=CCCC1S(=O)(=O)Nc1ccc(F)cc1Cl (centres unmarked) [Compound 64, ethyl 5-[N-(2-chloro-4-fluorophenyl)sulfamoyl]-1-cyclopentene-1-carboxylate]
23 | 0.32 | CCOC(=O)C1=CCCCCC1S(=O)(=O)Nc1ccc(F)cc1Cl (centres unmarked) [Compound 65, ethyl 7-[N-(2-chloro-4-fluorophenyl)sulfamoyl]-1-cycloheptene-1-carboxylate]
24 | 8.1 | CCOC(=O)C1=C(S(=O)(=O)Nc2ccc(F)cc2F)CCC1 [Compound 66, ethyl 2-[N-(2,4-difluorophenyl)sulfamoyl]-1-cyclopentene-1-carboxylate]
25 | 6 | COc1ccc(N2C(=O)C3=C(CCCC3)S2(=O)=O)cc1 [Compound 67, 2-(4-methoxyphenyl)-4,5,6,7-tetrahydro-1,2-benzoisothiazole-3(2H)-one 1,1-dioxide]
26 | 5.1 | O=C1C2=C(CCCC2)S(=O)(=O)N1c1ccc(F)cc1 [Compound 68, 2-(4-fluorophenyl)-4,5,6,7-tetrahydro-1,2-benzoisothiazol-3(2H)-one 1,1-dioxide]
27 | 6.8 | O=C1C2=C(CCCC2)S(=O)(=O)N1c1ccc(OCC(F)(F)C(F)(F)F)cc1 [Compound 69, 2-[4-(2,2,3,3,3-pentafluoropropoxy)phenyl]-4,5,6,7-tetrahydro-1,2-benzisothiazol-3(2H)-one 1,1-dioxide]
28 | 0.35 | O=C1C2=CCCCC2S(=O)(=O)N1c1ccc(F)cc1F (centres unmarked) [Compound 70, 2-(2,4-difluorophenyl)-5,6,7,7a-tetrahydro-1,2-benzoisothiazol-3(2H)-one 1,1-dioxide]

Row | Compound | IC50 [µM]
29 | CCOC(=O)C1=CCCCC1S(=O)(=O)Nc1ccc(CNC(=NC(=O)OC(C)(C)C)NC(=O)OC(C)(C)C)cc1 (centres unmarked) [Compound 53, ethyl 6-[N-[4-[2,3-bis(t-butoxycarbonyl)guanidinomethyl]phenyl]sulfamoyl]-1-cyclohexene-1-carboxylate] | 2.4
30 | CCOC(=O)C1=CCCCC1S(=O)(=O)Nc1ccc(C(=O)NCC(=O)OC(C)(C)C)cc1Cl (centres unmarked) [Compound 62, ethyl 6-[N-[2-chloro-4-(N-t-butoxycarbonylmethylcarbamoyl)phenyl]sulfamoyl]-1-cyclohexene-1-carboxylate] | 3.8

Same assay, conditions: RAW264.7; LPS 5 ng/ml + interferon gamma 1 U/ml; nitrite ion in culture supernatant after overnight incubation

Row | IC50 [µM] | Compound
31 | 0.013 to 0.039 | CCOC(=O)C1=CCCCC1S(=O)(=O)Nc1ccc(F)cc1F (centres unmarked) [Compound 3, ethyl 6-[N-(2,4-difluorophenyl)sulfamoyl]-1-cyclohexene-1-carboxylate]
32 | 4.6 | CCOC(=O)C1=CCCCC1S(=O)(=O)Nc1ccc(-n2cncn2)cc1F (centres unmarked) [Compound 57, ethyl 6-[N-[2-fluoro-4-(IH-1,2,4-triazol-1-yl)phenyl)sulfamoyl]-1-cyclohexene-1-carboxylate]
33 | 0.005 | d-ethyl 6-[N-(2,4-difluorophenyl)sulfamoyl]-1-cyclohexene-1-carboxylate [Compound 20]

Row | Compound | IC50 [µM]
34 | ethyl 6-[N-3-fluorophenyl]sulfamoyl)-1-cyclohexene-1-carboxylate [Compound 11] | 0.31

System: blood nitric oxide concentration (NOx)
Assay: Effect on increase in blood nitric oxide level (LPS-treated mice)
Format: in vivo, BALB/c mice
Conditions: Mus musculus; 30 mg/kg orally 1 hour before LPS 10 mg/kg i.p.; serum nitrite+nitrate 6 hours after LPS; vs control group; read-out: Inhibition % of NO in blood

Row | Compound | inhibition at 30 mg/kg [%]
35 | CCOC(=O)C1=CCCCC1S(=O)(=O)Nc1ccc(F)cc1F (centres unmarked) [Compound 3, ethyl 6-[N-(2,4-difluorophenyl)sulfamoyl]-1-cyclohexene-1-carboxylate] | 90
